The values below are quoted from earlier work in patent US20230189810A1, “AQUEOUS COMPOSITION OF DITHI[…]” (priority 2020, published 2023).

The conditions of the data set: water, 20° C.

As for mancozeb, the solubility entry is recorded as “about 6.2 mg per liter”.
